Assay [1] deals with CDK5/p25 (Homo sapiens, UniProt Q00535). Nature of the assay: CDK5 mobility shift assay (enzymatic activity of CDK5/p25). It is filed as biochemical. The conditions noted are these: for CDK5/CDK2 specificity: fold more active against CDK5 than CDK2. The protocol: (§1) Compound potency was measured via a change in the enzymatic activity of CDK5/p25, and optionally of CDK2/CycA2. Enzymes, CDK5/p25 and CDK2/CycA2, were sourced from Carna Biosciences (Cat #04-106 and 04-103, respectively). Test compound stocks were diluted in 100% DMSO and serially diluted 3-fold in a 384-well plate using a TECAN EVO200 (TECAN). Staurosporine was used as a reference control compound in all assays.
Chain of CDK5/p25 (Q00535 whole entry): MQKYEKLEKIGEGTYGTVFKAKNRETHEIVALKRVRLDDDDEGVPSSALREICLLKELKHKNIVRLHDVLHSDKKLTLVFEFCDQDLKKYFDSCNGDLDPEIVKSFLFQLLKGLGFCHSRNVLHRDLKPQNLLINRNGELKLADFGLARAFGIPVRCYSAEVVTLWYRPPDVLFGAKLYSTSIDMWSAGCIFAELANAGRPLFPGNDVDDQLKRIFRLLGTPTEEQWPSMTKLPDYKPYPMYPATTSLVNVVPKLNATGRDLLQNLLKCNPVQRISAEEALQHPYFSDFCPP
Chain of CDK5/p25 (Q15078 99-307 partner limits assumed): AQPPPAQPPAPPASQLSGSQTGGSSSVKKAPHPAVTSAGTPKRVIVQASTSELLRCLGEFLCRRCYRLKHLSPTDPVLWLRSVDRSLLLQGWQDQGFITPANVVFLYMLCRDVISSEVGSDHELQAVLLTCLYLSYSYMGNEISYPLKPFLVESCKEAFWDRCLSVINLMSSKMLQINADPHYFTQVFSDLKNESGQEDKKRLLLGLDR
(§2) Twenty nL of compound were transferred into a 384-well plate (Greiner 781201) using an Echo550 (Labcyte Inc). Enzyme, ATP, and 10 mM MgCl2 were preincubated at room temperature with the compound in assay buffer (50 mM HEPES pH 7.5, 1 mM EGTA, 0.01% Brij-35, 0.05% BSA, 2 mM DTT) for 30 minutes. Peptide substrate (FL peptide 29 (Perkin Elmer) for CDK5/p25; FL Peptide 18 (Perkin Elmer) for CDK2/CycA2) was added to initiate the reaction. The final assay contained 0.154 nM CDK5/p25 or 1.25 nM CDK2/CycA2, […] (for CDK5/p25) or 37 μM (for CDK2/CycA2) ATP, and 1.5 μM of the appropriate peptide substrate. The final DMSO concentration was <1%.
(§3) The CDK5/p25 reaction was incubated at room temperature for 60 min. The CDK2/CycA2 reaction was incubated at room temperature for 120 min. The reactions were quenched by the addition of 70 μL stopping buffer containing 0.5 M EDTA. Samples were analyzed using the EZ Reader (Perkin Elmer).
(§4) The results were expressed as % vehicle, where % vehicle=100×(U−C2)/(C1−C2), where U is the signal of sample, C1 is the average of the high controls (signal with no compound added), and C2 is the average of low controls (signal with the buffer in place of enzyme). The ICso is determined by fitting the percentage of inhibition as a function of compound concentrations using a 4-parameter fit defined as follows.
(§5) Y=Bottom+(Top−Bottom)/(1+10^((LobIC50-X)*Hill Slope)), where X is the log of the compound concentration, Y is the % vehicle or response at X, Top and Bottom are the plateaus in the same units as Y, and the Hill's Slope is unitless, and the ICso is the half-maximal inhibitory concentration.

For assay [2], the target named is CDK2/CycA2 (Homo sapiens, UniProt P24941). Briefly: CDK2 mobility shift assay (enzymatic activity of CDK2/CycA2). In kind it is biochemical. The protocol:
as §1, §2, §3, §4, §5

Where [3] appears, read: 0.154 nM CDK5/p25, FL peptide 29, 60 min at room temperature, read-out: CDK5 IC50.
The mark [4] stands for this setting: 1.25 nM CDK2/CycA2, 37 μM ATP, FL Peptide 18, 120 min at room temperature, read-out: CDK2 IC50.

Molecules are shown by their SMILES. Read-outs that look alike come from different tables or passages of the source. A value given as a limit tells only on which side of the number the result lay.

Take `COC(=O)c1ccn(-c2ccc(Nc3cc4nc(C(O)C5CCN(C)CC5)ccc4cn3)c(F)c2)n1` (stereo not drawn) [Compound 344]: the IC50 (as a rule, the point on the concentration scale where inhibition reaches its midpoint) in assay [1] (setting [3]) is 100 to 1000 nM; in assay [2] (setting [4]) it was more than 1000 nM. Besides, in assay [1], the CDK5/CDK2 specificity result is “++ (greater than 10-fold and less than or equal to 100-fold more active against CDK5 than CDK2)”.
As to `CN1CCC([C@@](C)(O)c2ccc3cnc(Nc4ccc(-c5cccc(C(N)=O)c5)cc4F)cc3n2)CC1` [Compound 364, (R)-3′-fluoro-4′-((2-(1-hydroxy-1-(1-methylpiperidin-4-yl)ethyl)-1,6-naphthyridin-7-yl)amino)-[1,1′-biphenyl]-3-carboxamide], the results for the IC50 in assay [1] (setting [3]) and in assay [2] (setting [4]) were less than 10 nM and 10 to 100 nM, respectively. Further, the CDK5/CDK2 specificity result in assay [1] was “++ (greater than 10-fold and less than or equal to 100-fold more active against CDK5 than CDK2)”.
Regarding `CN1CCC(C(C)(O)c2ccc3cnc(Nc4ccc(-c5ccc(=O)[nH]c5)cc4F)cc3n2)CC1` (stereo not drawn) [Compound 383], the IC50 in assay [1] (setting [3]) is less than 10 nM; in assay [2] (setting [4]), 10 to 100 nM. In assay [1], the CDK5/CDK2 specificity result was “++ (greater than 10-fold and less than or equal to 100-fold more active against CDK5 than CDK2)”.
Turning to `CN1CCC(S(=O)(=O)c2ccc3cnc(Nc4ccc(CN5CCOCC5)cc4)cc3n2)CC1` [Compound 261], the IC50 in assay [1] (setting [3]) was less than 10 nM; in assay [2] (setting [4]), 100 to 1000 nM. Also, the CDK5/CDK2 specificity result in assay [1] was “+++ (greater than 100-fold more active against CDK5 than CDK2)”.
Regarding `Cc1ccc(F)c(Nc2cc3nc(C(O)(C4CCN(C)CC4)C(F)(F)F)ccc3cn2)c1` (stereo not drawn) [Compound 390], the IC50 in assay [1] (setting [3]) was 100 to 1000 nM; in assay [2] (setting [4]) it was more than 1000 nM. Besides, the CDK5/CDK2 specificity result in assay [1] is “++ (greater than 10-fold and less than or equal to 100-fold more active against CDK5 than CDK2)”.
Take `CN1CCC(S(=O)(=O)c2ccc3cnc(Nc4ccc5c(c4)C(=O)N(C)C5)cc3n2)CC1` [Compound 275]: the figures for the IC50 in assay [1] (setting [3]) and in assay [2] (setting [4]) were 10 to 100 nM and 100 to 1000 nM, respectively. In assay [1], the CDK5/CDK2 specificity result is “++ (greater than 10-fold and less than or equal to 100-fold more active against CDK5 than CDK2)”.
For the compound `COc1cc(-c2ccc(Nc3cc4nc(S(=O)(=O)C5CCN(CC6COC6)CC5)ccc4cn3)c(F)c2)ccn1` [Compound 328], the IC50 in assay [1] (setting [3]) is less than 10 nM; in assay [2] (setting [4]), more than 1000 nM. In addition, the CDK5/CDK2 specificity result in assay [1] is recorded as “+++ (greater than 100-fold more active against CDK5 than CDK2)”.
`Cc1cc(C)cc(Nc2cc3nc(S(=O)(=O)C4CCN(C)CC4)ccc3cn2)c1` [Compound 260]: the results for the IC50 in assay [1] (setting [3]) and in assay [2] (setting [4]) were less than 10 nM and 100 to 1000 nM, respectively. Moreover, in assay [1], the CDK5/CDK2 specificity result was “+++ (greater than 100-fold more active against CDK5 than CDK2)”.
The like results for `Cc1cc(C(=O)NC(C)C)ccc1Nc1cc2nc(S(=O)(=O)C3CCN(C)CC3)ccc2cn1` [Compound 265] were, in that order, 10 to 100 nM, more than 1000 nM and “+++ (greater than 100-fold more active against CDK5 than CDK2)”.
As to `CN1CCC(C2(c3ccc4cnc(Nc5ccc(-n6ccc(CO)n6)cc5F)cc4n3)CC2)CC1` [Compound 312, [1-[3-fluoro-4-([2-[1-(1-methylpiperidin-4-yl)cyclopropyl]-1,6-naphthyridin-7-yl]amino)phenyl]pyrazol-3-yl]methanol], the IC50 in assay [1] (setting [3]) is 10 to 100 nM; in assay [2] (setting [4]), more than 1000 nM. Also, the CDK5/CDK2 specificity result in assay [1] is “++ (greater than 10-fold and less than or equal to 100-fold more active against CDK5 than CDK2)”.
Regarding `N#Cc1cccc(-c2ccc(Nc3cc4nc(C(O)C5CCN(CCO)CC5)ccc4cn3)c(F)c2)c1` (single isomer, unassigned) [Compound 250, 3′-fluoro-4′-[(2-[hydroxy[1-(2-hydroxyethyl)piperidin-4-yl]methyl]-1,6-naphthyridin-7-yl)amino]-[1,1′-biphenyl]-3-carbonitrile], the IC50 is less than 10 nM in assay [1] (setting [3]) and 100 to 1000 nM in assay [2] (setting [4]). Also, the CDK5/CDK2 specificity result in assay [1] is “++ (greater than 10-fold and less than or equal to 100-fold more active against CDK5 than CDK2)”.
As to `OCc1ccn(-c2ccc(Nc3cc4nc(NC5CCNCC5)ccc4cn3)c(F)c2)n1` [Compound 102, [1-(3-fluoro-4-[[2-(piperidin-4-ylamino)-1,6-naphthyridin-7-yl]amino]phenyl)pyrazol-3-yl]methanol], the IC50 in assay [1] (setting [3]) is less than 10 nM; in assay [2] (setting [4]) it was 100 to 1000 nM. Moreover, in assay [1], the CDK5/CDK2 specificity entry was “++ (greater than 10-fold and less than or equal to 100-fold more active against CDK5 than CDK2)”.
Take `OCCN(c1ccc2cnc(Nc3ccc(-n4nccc4CO)cc3F)cc2n1)C1CCNCC1` [Compound 103, 2-[[7-([2-fluoro-4-[5-(hydroxymethyl)pyrazol-1-yl]phenyl]amino)-1,6-naphthyridin-2-yl](piperidin-4-yl)amino]ethanol]: the IC50 in assay [1] (setting [3]) was 10 to 100 nM; in assay [2] (setting [4]), 100 to 1000 nM. In assay [1], the CDK5/CDK2 specificity entry is “++ (greater than 10-fold and less than or equal to 100-fold more active against CDK5 than CDK2)”.
Regarding `CN1CCC(C(C)(O)c2ccc3cnc(Nc4cccc(N5CCOCC5)c4)cc3n2)CC1` (stereo not drawn) [Compound 348], the IC50 in assay [1] (setting [3]) was less than 10 nM; in assay [2] (setting [4]), 100 to 1000 nM. The CDK5/CDK2 specificity result in assay [1] was “++ (greater than 10-fold and less than or equal to 100-fold more active against CDK5 than CDK2)”.
Turning to `CN(C)[C@H]1CC[C@@H](N(CC(=O)O)c2ccc3cnc(Nc4ccc(-n5ccc(CO)n5)cc4F)cc3n2)CC1` [Compound 182, [[7-([2-fluoro-4-[3-(hydroxymethyl)pyrazol-1-yl]phenyl]amino)-1,6-naphthyridin-2-yl][(1s,4s)-4-(dimethylamino)cyclohexyl]amino]acetic acid], the IC50 in assay [1] (setting [3]) and in assay [2] (setting [4]) was more than 1000 nM in each case. Also, the CDK5/CDK2 specificity entry in assay [1] is “++ (greater than 10-fold and less than or equal to 100-fold more active against CDK5 than CDK2)”.
On to `CN1CCC(S(=O)(=O)c2ccc3cnc(Nc4ccc(-c5cccn(C)c5=O)cc4F)cc3n2)CC1` [Compound 378], for which the figures for the IC50 in assay [1] (setting [3]) and in assay [2] (setting [4]) were 10 to 100 nM and more than 1000 nM, respectively. Also, the CDK5/CDK2 specificity entry in assay [1] is “+++ (greater than 100-fold more active against CDK5 than CDK2)”.
Consider `CC(c1ccc2cnc(Nc3ccc(-n4ccc(CO)n4)cc3F)cc2n1)C1CCN(C)CC1` (single isomer, unassigned) [Compound 186, [1-[3-fluoro-4-([2-[1-(1-methylpiperidin-4-yl)ethyl]-1,6-naphthyridin-7-yl]amino)phenyl]pyrazol-3-yl]methanol], for which the IC50 in assay [1] (setting [3]) is 10 to 100 nM; in assay [2] (setting [4]), more than 1000 nM. In addition, the CDK5/CDK2 specificity result in assay [1] is “++ (greater than 10-fold and less than or equal to 100-fold more active against CDK5 than CDK2)”.
`CN1CCC(/C(=N\O)c2ccc3cnc(Nc4ccc(-n5cccn5)cc4F)cc3n2)CC1` [Compound 375]: the results for the IC50 in assay [1] (setting [3]) and in assay [2] (setting [4]) were less than 10 nM and 10 to 100 nM, respectively. In assay [1], the CDK5/CDK2 specificity entry is “++ (greater than 10-fold and less than or equal to 100-fold more active against CDK5 than CDK2)”.
With `CN1CCC(C(C)(F)c2ccc3cnc(Nc4ccc(-n5cccn5)cc4F)cc3n2)CC1` (single isomer, unassigned) [Compound 363, 2-[1-fluoro-1-(1-methylpiperidin-4-yl)ethyl]-N-[2-fluoro-4-(pyrazol-1-yl)phenyl]-1,6-naphthyridin-7-amine], the IC50 was 10 to 100 nM in assay [1] (setting [3]) and more than 1000 nM in assay [2] (setting [4]). Moreover, the CDK5/CDK2 specificity entry in assay [1] was “++ (greater than 10-fold and less than or equal to 100-fold more active against CDK5 than CDK2)”.
On to `CCc1cccc(Nc2cc3nc(C(C)(O)C4CCN(C)CC4)ccc3cn2)c1` (stereo not drawn) [Compound 373], for which the figures for the IC50 in assay [1] (setting [3]) and in assay [2] (setting [4]) were less than 10 nM and 10 to 100 nM, respectively. Besides, the CDK5/CDK2 specificity entry in assay [1] was “++ (greater than 10-fold and less than or equal to 100-fold more active against CDK5 than CDK2)”.
As for `O=C(O)CN(c1ccc2cnc(Nc3ccc(-n4ccc(CO)n4)cc3F)cc2n1)C1CCNCC1` [Compound 101, [[7-([2-fluoro-4-[3-(hydroxymethyl)pyrazol-1-yl]phenyl]amino)-1,6-naphthyridin-2-yl](piperidin-4-yl)amino]acetic acid], the IC50 in assay [1] (CDK5 IC50) is 10 to 100 nM; in assay [2] (CDK2 IC50), more than 1000 nM. For the same compound, the CDK5/CDK2 specificity entry in assay [1] was “++ (greater than 10-fold and less than or equal to 100-fold more active against CDK5 than CDK2)”.
As for `CC(C)N1CCC(S(=O)(=O)c2ccc3cnc(Nc4ccc(-n5cccn5)cc4F)cc3n2)CC1` [Compound 380], the figures for the IC50 in assay [1] (setting [3]) and in assay [2] (setting [4]) were 10 to 100 nM and 100 to 1000 nM, respectively. The CDK5/CDK2 specificity entry in assay [1] was “++ (greater than 10-fold and less than or equal to 100-fold more active against CDK5 than CDK2)”.

(Values after patent publication US20220389009A1, “SUBSTITUTED 1,6-NAPHTHYRIDINE INHIBITORS OF CDK5” (Goldfinch Bio, Inc., priority 2019, published 2022).)
